From patent publication US4965377A, “Process of forming 2-(2-bromo-2-nitroethenyl)-furan” (Great Lakes Chemical Corporation, priority 1989, dated 1990)
In brackets after ≈: the same amount, converted by molar mass. Where two headings read alike, the source gives them in different places. One block for each molecule: values may come before it.

Assays:
Pseudomonas aeruginosa [1] = assay: Contact time required for 99.9% reduction in viability of Pseudomonas aeruginosa in water; format: cell-based
Procedure: Virtually all modern water treatment applications are alkaline. Even in an alkaline condition, BNEF is quite active. Data in Table 2 show the contact time of BNEF required for a 99.9% reduction in Viability of Pseudomonas aeruginosa in water. Several pure culture cell suspensions of Pseudomonas aeruginosa were prepared in phosphate-buffered water that had been adjusted to pH 7.0 or pH 8.1. The initial concentration of viable cells was determined by counting colony forming-units in the standard spread plate method. A tetrahydrofurfuryl alcohol (THFA) solution containing the antimicrobial (90% THFA, 10% antimicrobial) was added to cell suspensions at each pH such that 10 ppm of the antimicrobial was dosed. Similarly, THFA was added without antimicrobial to cell suspensions at each pH value to serve as no-treatment controls. The concentration of viable cells was then determined at regular time intervals for all of the cell suspensions until at least 99.9% reduction in viability (compared to the controls) was achieved by the antimicrobial treatment.

Pseudomonas aeruginosa [2] = assay: Minimum inhibitory concentration against Pseudomonas aeruginosa; format: cell-based
Procedure: (§1) All of the minimum inhibitory concentration determinations were made in a nutrient-rich growth medium in the following manner. Each organism was inoculated into a nutrient-rich medium that supported its growth. Various concentrations of a solution of the antimicrobial in THFA (90% THFA, 10% antimicrobial) were dosed into the inoculated growth medium; inoculated media were also dosed only with THFA (no antimicrobial)to serve as controls. Two concentrations of antimicrobial were recorded for each organism after growth in the controls was visible (the lowest concentration that prevented growth and the highest concentration that allowed growth); the MIC is reported as the range between these concentrations.

Chlorella pyrenoidosa = assay: Minimum inhibitory concentration against Chlorella pyrenoidosa; format: cell-based; conditions: Auxenochlorella pyrenoidosa
Procedure: as §1

bacteria and algae = assay: Antimicrobial activity, general statement
Baccilus megaterium = assay: Minimum inhibitory concentration against Bacillus megaterium; format: cell-based; conditions: Priestia megaterium, read-out: Minimum Inhibitory Conc
Procedure: as §1

Pseudomonas aeruginosa [3] = assay: Viability of Pseudomonas aeruginosa in phosphate buffered water (FIG. 1); format: cell-based; conditions: after 6 hours of contact, pH 7.2
Procedure: FIG. 1 illustrates a decrease in the viability of Pseudomonas aeruginosa, a common bacterial genus found in industrial cooling water upon contact with different concentrations of BNEF. The experiment was performed in phosphate buffered water at a pH of 7.2.

Staphylococcus aureus = assay: Minimum inhibitory concentration against Staphylococcus aureus; format: cell-based; conditions: Table 3, nutrient-rich growth medium, bacterium
Procedure: as §1

[4] = test system: naturally occurring microorganism in industrial cooling water; assay: Efficacy in industrial cooling water, ASTM E-645-85 method (FIG. 4); format: cell-based; conditions: 5 ppm, 24 hours of contact
Source text: FIG. 4 is a graph showing the efficacy of 2-(2-bromo-2-nitroethenyl)-furan in industrial cooling water applications according to the ASTM E-645-85 method.
BNEF can also be used in water treatment such as for example treatment of industrial cooling water. […] Shorter contact times require a higher concentration of BNEF in the application. Preferably an antimicrobially effective amount of BNEF should be added to reduce the viability of microorganisms by at least 90 percent. It is especially preferred to employ about 1 ppm to about 5 ppm of BNEF.

Erwina anylovora = assay: Minimum inhibitory concentration against Erwina anylovora; format: cell-based; conditions: Table 3; nutrient-rich growth medium; bacterium
Procedure: as §1

Alternaria solani = assay: Minimum inhibitory concentration against Alternaria solani; format: cell-based; conditions: Table 3, nutrient-rich growth medium, fungus
Procedure: as §1

Xanthomonas prunii = assay: Minimum inhibitory concentration against Xanthomonas prunii; format: cell-based; conditions: Table 3, nutrient-rich growth medium, bacterium
Procedure: as §1

[5] = ASTM Pulp and Paper efficacy test (ASTM E600-85); format: cell-based; conditions: compared with two commercially successful antimicrobials
Source text: BNEF can also be used as an antimicrobial in pulp and paper manufacturing applications.

Erwina caratovora = assay: Minimum inhibitory concentration against Erwina caratovora; format: cell-based; conditions: Table 3; nutrient-rich growth medium; bacterium
Procedure: as §1

bacteria = assay: Metal working fluid preservation test, bacteria (FIG. 3); format: cell-based, bacteria from spoiled metal working fluid; conditions: soluble oil, semisynthetic, and synthetic fluids; 72 hours, room temperature
Procedure: (§2) In addition to pulp and paper manufacturing, BNEF can be used as a metal working fluid preservative. […] These tests were performed in the following manner. A typical soluble oil, semi-synthetic, and synthetic metalworking fluid were prepared with tap water at a ratio of 20:1. A field sample of "spoiled" fluid was mixed with a nutrient broth (50/50) and incubated for 24 hours to serve as the bacterial inoculum. Fungi isolated from metalworking fluids were grown on agar plates. The fungi were harvested into a suspension which then served as the fungal inoculum. At time zero, 50 ml aliquots of each fluid were prepared. The fluids were inoculated and dosed with the antimicrobial agent at different concentrations. Time zero bacterial and fungal counts were taken on each control fluid. The samples were then placed on a mechanical shaker (at room temperature) for 72 hours. Bacterial and fungal counts were then performed. The preferred level of BNEF in this application is in the range of 10 to 100 ppm.

fungi = assay: Metal working fluid preservation test, fungi; format: cell-based, fungi isolated from metalworking fluids; conditions: soluble oil, semisynthetic, and synthetic fluids; 72 hours, room temperature
Procedure: as §2

[6] = Kinetics of disinfection in phosphate buffer (FIG. 5); format: cell-based; conditions: 10 ppm (w/v); phosphate buffer pH 7.0
Source text: FIG. 5 is a graph showing the kinetics of disinfection of 2-(2-bromo-2-nitroethenyl)-furan in comparison to its styrene analogue.

Trichoderma virde = assay: Minimum inhibitory concentration against Trichoderma virde; format: cell-based; conditions: Table 3, nutrient-rich growth medium, fungus
Procedure: as §1

[7] = test system: Xanthomonas poinsettiacola; assay: Minimum inhibitory concentration against Xanthomonas poinsettiacola; format: cell-based; conditions: Table 3, nutrient-rich growth medium, bacterium
Procedure: as §1

Erwina chysanthemi = assay: Minimum inhibitory concentration against Erwina chysanthemi; format: cell-based; conditions: Table 3; nutrient-rich growth medium; bacterium
Procedure: as §1

Saccharomyces sp. = assay: Minimum inhibitory concentration against Saccharomyces sp.; format: cell-based; conditions: Table 3; nutrient-rich growth medium; fungus (yeast)
Procedure: as §1

Asperillus niger = assay: Minimum inhibitory concentration against Asperillus niger; format: cell-based; conditions: Table 3; nutrient-rich growth medium; fungus
Procedure: as §1

[8] = test system: Photobacterium phosphoreum; assay: Minimum inhibitory concentration against Photobacterium phosphoreum; format: cell-based; conditions: Table 3, nutrient-rich growth medium, bacterium
Procedure: as §1

[9] = test system: Desulfovibro desulfuricans; assay: Minimum inhibitory concentration against Desulfovibro desulfuricans; format: cell-based; conditions: Table 3; nutrient-rich growth medium; bacterium
Procedure: as §1

[10] = test system: Agrobacterium tumefaciens; assay: Minimum inhibitory concentration against Agrobacterium tumefaciens; format: cell-based; conditions: Table 3, nutrient-rich growth medium, bacterium
Procedure: as §1

Xanthomonas palargonii = assay: Minimum inhibitory concentration against Xanthomonas palargonii; format: cell-based; conditions: Table 3, nutrient-rich growth medium, bacterium
Procedure: as §1

Rhizoctonia sp. = assay: Minimum inhibitory concentration against Rhizoctonia sp.; format: cell-based; conditions: Table 3, nutrient-rich growth medium, fungus
Procedure: as §1

[11] = Table 4, analogues, read-out: MIC Against Pseudomonas aeruginosa
[12] = Table 1, read-out: Minimum Inhibitory Conc
[13] = Table 1, Chlorella pyrenoidosa, read-out: Minimum Inhibitory Conc
[14] = read-out: Minimum Inhibitory Conc

MIC (Pseudomonas aeruginosa [2]; [11]): 21 to 42 µg/mL (≈ 89.7 to 179 µM)
Structure (SMILES): O=[N+]([O-])C(Br)=Cc1cccs1 [2-(2-bromo-2-nitroethenyl)-thiophene]

MIC (Pseudomonas aeruginosa [2]; [12]): 63 to 125 µg/mL (≈ 453 to 899 µM) | MIC (Chlorella pyrenoidosa; [13]): 16 to 63 µg/mL (≈ 115 to 453 µM) | MIC (Baccilus megaterium; Table 1, Baccilus megaterium): 63 to 125 µg/mL (≈ 453 to 899 µM)
Structure (SMILES): O=[N+]([O-])C=Cc1ccco1 [2-nitro-1-(2-furyl)ethylene, reference compound]
antimicrobial activity relative to BNEF (bacteria and algae; background statement): lower antimicrobial activity

MIC (Pseudomonas aeruginosa [2]; [12]): 6 to 12 µg/mL (≈ 42.5 to 85.1 µM) | MIC (Chlorella pyrenoidosa; [13]): 4 to 16 µg/mL (≈ 28.4 to 113 µM) | MIC (Baccilus megaterium; Table 1, Baccilus megaterium): 3 to 6 µg/mL (≈ 21.3 to 42.5 µM)
Structure (SMILES): O=Cc1ccc([N+](=O)[O-])o1 [5-nitro-2-furaldehyde]

MIC (Pseudomonas aeruginosa [2]; [11]): 10 to 20 µg/mL (≈ 33.7 to 67.4 µM)
Structure (SMILES): O=[N+]([O-])C(Br)=Cc1ccc(Br)o1 [5-bromo-2-(2-bromo-2-nitroethenyl)-furan]

MIC (Pseudomonas aeruginosa [2]; [11]): 21 to 42 µg/mL (≈ 90.5 to 181 µM)
Structure (SMILES): Cc1ccc(C=C(Br)[N+](=O)[O-])o1 [5-methyl-2-(2-bromo-2-nitroethenyl)-furan]

The remaining lines, values behind:

Structure (SMILES): O=[N+]([O-])C(Br)=Cc1ccccc1 [β-bromo-β-nitrostyrene, reference compound]
disinfection rate, effect of higher pH (Pseudomonas aeruginosa [1]; β-bromo-β-nitrostyrene, source of finding not stated): Increased disinfection rate with higher pH

Structure (SMILES): O=[N+]([O-])C(Br)=Cc1ccco1 [BNEF, 2-(2-bromo-2-nitroethenyl)-furan]
concentration required to eliminate 99.9% of the test inoculum (Pseudomonas aeruginosa [3]): about 10 ppm | MIC (Staphylococcus aureus): 3 to 7.6 µg/mL (≈ 13.8 to 34.9 µM) | reduction in viability [4]: ~99% | MIC (Pseudomonas aeruginosa [2]; [12]): 5 to 10 µg/mL (≈ 22.9 to 45.9 µM) | Required Contact Time (99.9% reduction) (Pseudomonas aeruginosa [1]; 10 ppm, pH 7.0, Initial Cell Concentration 3.2 × 10^4): 5 h | Required Contact Time (99.9% reduction) (Pseudomonas aeruginosa [1]; 10 ppm, pH 8.1, Initial Cell Concentration ~1.0 × 10^4): 1 h | disinfection rate, effect of pH (Pseudomonas aeruginosa [1]; 10 ppm, pH level of 8 compared to pH level of 7): faster at a pH level of 8 | MIC (Erwina anylovora): < 0.5 µg/mL | MIC (Alternaria solani): < 1 µg/mL | MIC (Xanthomonas prunii): 2 to 5 µg/mL (≈ 9.17 to 22.9 µM) | MIC (Chlorella pyrenoidosa; [13]): 4 to 16 µg/mL (≈ 18.3 to 73.4 µM) | MIC (Chlorella pyrenoidosa; Table 3, nutrient-rich growth medium, algae, read-out: MIC): 4 to 16 µg/mL (≈ 18.3 to 73.4 µM) | activity in Pulp and Paper efficacy test [5]: at least as active as two commercially successful antimicrobials | antimicrobial activity (bacteria and algae; summary of Table 1): active at very low concentrations | MIC (Erwina caratovora): 0.5 to 1 µg/mL (≈ 2.29 to 4.59 µM) | effectiveness in metal working fluids against bacteria (bacteria): effective | effectiveness in metal working fluids against fungi (fungi): effective | effectiveness compared to β-bromo-β-nitrostyrene [6]: as effective as an antimicrobial in water treatment application as β-bromo-β-nitrostyrene | MIC (Trichoderma virde): < 5 µg/mL | MIC [7]: 0.5 to 1 µg/mL (≈ 2.29 to 4.59 µM) | MIC (Baccilus megaterium; Table 1, Baccilus megaterium): 5 to 10 µg/mL (≈ 22.9 to 45.9 µM) | MIC (Erwina chysanthemi): 0.5 to 1 µg/mL (≈ 2.29 to 4.59 µM) | MIC (Saccharomyces sp.): < 3 µg/mL | MIC (Asperillus niger): < 1 µg/mL | MIC [8]: 1 to 5 µg/mL (≈ 4.59 to 22.9 µM) | MIC [9]: < 2 µg/mL | MIC [10]: 0.5 to 1 µg/mL (≈ 2.29 to 4.59 µM) | MIC (Xanthomonas palargonii): 1 to 2 µg/mL (≈ 4.59 to 9.17 µM) | MIC (Rhizoctonia sp.): < 1 µg/mL

Structure (SMILES): O=[N+]([O-])C(Br)=Cc1ccc([N+](=O)[O-])o1 [5-nitro-2-(2-bromo-2-nitroethenyl)-furan]
MIC (Pseudomonas aeruginosa [2]; read-out: MIC Against Pseudomonas aeruginosa): 8 to 16 µg/mL (≈ 30.4 to 60.8 µM)

Structure (SMILES): C=Cc1ccco1 [furylethylene]
MIC (Pseudomonas aeruginosa [2]; [12]): > 1000 µg/mL | MIC (Chlorella pyrenoidosa; [13]): 250 to 1000 µg/mL (≈ 2660 to 10600 µM) | MIC (Baccilus megaterium; Table 1, Baccilus megaterium): > 1000 µg/mL

Structure (SMILES): O=CC=Cc1ccco1 [3-(2-furyl)acrolein]
MIC (Pseudomonas aeruginosa [2]; [14]): 250 to 500 µg/mL (≈ 2050 to 4090 µM) | MIC (Chlorella pyrenoidosa; [14]): 16 to 63 µg/mL (≈ 131 to 516 µM) | MIC (Baccilus megaterium): 250 to 500 µg/mL (≈ 2050 to 4090 µM)
